Test results from patent US10940150B2, “Thymine derivatives and quinazoline-dione derivatives for the inhibition of HSP27” (TECHNISCHE UNIVERSITAET DRESDEN, priority 2014, dated 2021).

Legend:
[1] = target: T1, HSP27 (Homo sapiens, UniProt P04792); experiment: SpeedScreen gel filtration binding test; conditions: PD SpinTraps G-25, detection by mass spectroscopy
Excerpt: For the experimental validation of low-molecular-weight compounds which act as potential HSP27 inhibitors according to the in silico prediction, a method based on gel filtration was employed. The method for detecting molecular bonds using gel filtration was described in 2004 as “SpeedScreen” [Muckenschnabel et al., 2004] and was adapted to meet the requirements of the invention. […] For the separation, PD SpinTraps G-25 from GE Healthcare were used. During the 2-minute centrifugation at 800×g (according to operating instructions), these columns allow molecules with a molecular weight of greater than or equal to 5000 g/mol to pass through, while smaller molecules are retained in the matrix. The target protein HSP27 has a molecular weight of 27000 g/mol and therefore passes through the matrix. […] Non-bound low-molecular-weight compounds are retained by the matrix. Molecules that have passed through the matrix can then be detected by mass spectroscopy. This enables “binders” to be differentiated from “non-binders”. For the experimental validation of low-molecular-weight compounds which act as potential HSP27 inhibitors according to the in silico prediction, a method based on gel filtration was employed. […] Molecules that have passed through the matrix can then be detected by mass spectroscopy. […]

[2] = target: T1, HSP27; experiment: Spectrophotometric protein aggregation assay (citrate synthase, HSP27 chaperone function); format: biochemical; conditions: 750 μmol/L; 43° C., 500 nm, 1.44 μmol/L CS, 481 nmol/L HSP27
Experimental: FIG. 1: a spectrophotometric protein aggregation assay at 43° C., a wavelength of 500 nm and a concentrations of the proteins: 1.44 μmol/L citrate synthase (CS), 481 nmol/L HSP27 (HSP) in a 40 mmol/L HEPES buffer (pH 7.4) during treatment with 14 or 28 μmol/L 2-(3-trichlorovinylphenylamino)-1,9-dihydropurin-6-one (CS+HSP+test substance no. 2), with 750 μmol/L BVDU (CS+HSP+BVDU) and without (CS+HSP; reference);
To measure the efficacy of the purine derivatives according to the invention, robust experiments for the chaperone function of the HSP27 protein were performed:
A known client protein (=substrate on which HSP27 acts as a chaperone) of HSP27 is citrate synthase. Citrate synthase is denatured when the temperature increases to 43° C. This heat denaturation is prevented or delayed by the presence of HSP27 [Jakob U, 1993]. By adding the novel active ingredients, their efficacy can thus be measured through the inhibition of the HSP27 chaperone function.
To determine the activity (i.e. the effect on the aggregation behaviour of the citrate synthase (CS) after thermal incubation) of 2-(3-trichlorovinylphenylamino)-1,9-dihydropurin-6-one in comparison to BVDU, four different batches containing 1.44 μmol/L CS, 481 nmol/L HSP27 (HSP) in a 40 mmol/L HEPES buffer (pH 7.4) were prepared and BVDU (750 μmol/L) or various concentrations of 2-(3-trichlorovinylphenylamino)-1,9-dihydropurin-6-one (14 μmol/L; 28 μmol/L) were added. The samples were then incubated at 43° C. and the aggregation behaviour of the CS was […] in a spectrometer (PerkinElmer LS55, PerkinElmer Inc.) at a wavelength of 500 nm.
It can be seen from FIG. 1 that the protein citrate synthase (graph CS alone) is denatured by increasing the temperature to 43° C. and forms aggregates. The aggregation is measured in the spectrometer at 500 nm (light scattering by protein aggregates). The presence of HSP27 (HSP) counteracts the aggregation (cf. graph, CS+HSP). Since the addition of the test substances (BVDU and 2-(3-trichlorovinylphenylamino)-1,9-dihydropurin-6-one) inhibits the chaperone function of HSP27, the activity of the respective test substance can be determined by measuring the aggregation behaviour of the CS.

[3] = tested on: RPMI-8226 cells; experiment: Development of resistance to bortezomib in RPMI-8226 cells; format: cell-based
[4] = tested on: late-stage pancreatic cancer patients; conditions: cited from earlier work

T1 sequence (P04792 whole entry): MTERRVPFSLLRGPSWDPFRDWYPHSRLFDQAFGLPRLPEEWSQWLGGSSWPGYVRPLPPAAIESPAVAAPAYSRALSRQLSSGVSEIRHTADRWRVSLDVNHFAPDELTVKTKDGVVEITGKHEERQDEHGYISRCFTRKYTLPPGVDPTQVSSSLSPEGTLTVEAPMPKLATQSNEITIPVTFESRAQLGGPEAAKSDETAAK

With `CC(=O)c1ccc2c(c1)N(CCCN(C)C)c1ccccc1S2` [Acepromazine] the “SpeedScreen: passage through Sephadex G-25 matrix bound to HSP27 (binder / non-binder)” value [1] was “tested positively”.
For `O=c1[nH]c(=O)n([C@H]2C[C@H](O)[C@@H](CO)O2)cc1/C=C/Br` [BVDU, (E)-5-(2-bromovinyl)-2′-deoxyuridine], the “effect on chaperone function of HSP27 (CS aggregation)” value [2] was “partially cancels the chaperone function of HSP27”, the final cell count ([3]; bortezomib 0.075-0.275 ng/ml + 30 μmol/L BVDU (FIG. 8a), without HSP27 inhibitor 510,000 cells/ml) was 340,000 cells/ml and the final cell count ([3]; bortezomib 0.1-0.3 ng/ml + 30 μM/L BVDU (FIG. 6a), without HSP27 inhibitor 950,000 cells/ml) was 290,000 cells/ml. The final cell count ([3]; bortezomib 0.1-0.3 ng/ml + 30 μmol/L BVDU (FIG. 7a), without HSP27 inhibitor 950,000 cells/ml) was 290,000 cells/ml, the “safety and efficacy in patients” value ([4]; administered dose of 500 mg/day, oral) was “works safely and efficiently” and the “tolerability in low-weight patients” value ([4]; increased administered dose of 760 mg/day) was “proved disadvantageous for low-weight patients”.
